We go through one molecule from article PMC9284491 (Nature Communications, 2022).

Structures are written as SMILES.

The nature of data set [1]: Dose-limiting toxicities, MTD and RP2D in dose escalation. The data set is classed as in vivo. The procedure: During dose escalation, treatment was initiated on day 1 in the fasting state in cohorts starting at a dose of 20 mg orally QD, escalating in subsequent cohorts to planned doses of 50–600 mg. For all cohorts, treatment was omitted on day 2, was administered on day 3 after a moderate fat breakfast, and was administered from day 4 in the fasting state. Dose escalation proceeded based on the occurrence of DLT together with target saturation by ^18F-FES PET/CT scans[45] and pharmacokinetic parameters during the first 28-day cycle, and according to a 3 + 3 design. […] During dose expansion, patients were treated at the RP2D. Patients were treated until disease progression, unacceptable toxicity, withdrawal of patient consent, or other reasons determined by the investigator (poor compliance with the protocol or intercurrent illness). […]
Analysis populations and associated statistical methods. […] Results were analyzed using descriptive statistics. […]

A short description of data set [2]: 24 h urine fraction, renal elimination of amcenestrant. The data set is classed as in vivo, human. The following applies: Part B, QD administration.
For another data set, the system named is CYP3A. The data set can be described thus: 4β-hydroxycholesterol ratio, induction/inhibition effect on CYP3A. The data set is classed as in vivo, human. Conditions: ≥200 mg QD.
The test system of data set [3] is ER activity signature (87 genes). The experiment in a line: ER activation score by GSVA of RNA-seq from paired tumor biopsies. The data set is classed as in vivo, human. The source says:
Total RNA was extracted from FFPE tissue (slides of 10 μm). A targeted-enrichment RNA-seq approach was applied utilizing KAPA RNA HyperPrep and whole exome […] kits (Roche) followed by the generation of sequencing reads with NextSeq 500 (Illumina). RNA-seq FASTQ files were processed with STAR aligner and Cufflinks to generate gene-level fragments per kilobase of transcript per million mapped reads (FPKM)[34],[47],[48]. Those FPKM values were converted to the gene-level estimation of expression in transcripts per million (TPM). The TPM data were then quantile-normalized and log2-transformed. GSVA was employed to calculate the ER activation score by using the ER activity signature (87 genes)[31]. […] Results were analyzed using descriptive statistics.

Details of data set [4]: method as in PMID 31721572. The following applies: preclinical; cited from earlier work.
The test system of a further data set is Ki67. The experiment in a line: Paired tumor biopsy IHC, Ki67 positive cells. The data set is classed as in vivo, human. Conditions: cycle 2, day 28; n = 7; range −30 to +30%. The procedure:
Staining was evaluated in tumor cells only.
Results were analyzed using descriptive statistics.

As for `O=C(O)c1ccc2c(c1)CCCC(c1ccc(Cl)cc1Cl)=C2c1ccc(O[C@H]2CCN(CCCF)C2)cc1` [amcenestrant, 6-(2,4-Dichlorophenyl)−5-[4-[(3S)−1-(3-fluoropropyl)pyrrolidin-3-yl]oxyphenyl]−8,9-dihydro-7H-benzo[7]annulene-2-carboxylic acid], in data set [1] (Part A, 20-600 mg QD), the “maximum tolerated dose (MTD)” value is “not reached”. In addition, the dose-limiting toxicities entry in data set [1] (in vivo) is on record as “No dose-limiting toxicities occurred”. In data set [2], the “amcenestrant excreted in urine over the 24-h interval” value is on record as < 0.1 % of the administered dose. Also, the “effect on CYP3A liver enzyme activity” value in the data set with CYP3A is on record as “can induce cytochrome P450 (CYP) 3 A liver enzyme activity”. Moreover, the “ER activation score by GSVA, median change from screening” value in data set [3] (cycle 2, day 28, n = 5, range −1.1 to +0.4) was −0.4. Besides, the “ER activation score, median change from screening” value in data set [3] (patients who showed clinical benefit, n = 4, range −1.1 to 0) is listed as −0.6. For the same molecule, the “ER activation score, change from screening” value in data set [3] (the patient with no clinical benefit) was “+0.4”. Also, the metabolic stability result in data set [4] is reported as “metabolically stable”. Further, the “median change from screening in percentage of Ki67 positive cells” value in the data set on Ki67 is recorded as −8%.
